From patent publication US6455556B2, “Crystal modifications of 1-(2,6-difluorobenzyl)-1H-1,2,3-triazole-4-carboxamide” (Novartis AG, priority 1997, dated 2002)

Test: dissolution rate in water and gastric fluid
Format: physicochemical
Settings: compared with modification A or A′

## NC(=O)c1cn(Cc2c(F)cccc2F)nn1 [modification B, 1-(2,6-difluorobenzyl)-1H-1,2,3-triazole-4-carboxamide]
Gastric fluid
  dissolution rate in gastric fluid: substantially faster
water
  dissolution rate in water: substantially faster
